# From patent US20260373266A1, “PROTEIN DEGRADERS AND USES THEREOF” (KYMERA THERAPEUTICS, INC., priority 2022, published 2026)
# Molecular target: T1, DCAF1 WD40 domain (residues 1077-1390) (Homo sapiens, UniProt Q9Y4B6)
# T1 construct: DCAF1 WD40 domain (residues 1077-1390)
# Assay: DCAF1 binding assay by SPR (Biacore 8K+), DCAF1-3 KD
# Settings: 25 °C, read-out: DCAF1-3 SPR (KD)
# T1 sequence (Q9Y4B6 1077-1390): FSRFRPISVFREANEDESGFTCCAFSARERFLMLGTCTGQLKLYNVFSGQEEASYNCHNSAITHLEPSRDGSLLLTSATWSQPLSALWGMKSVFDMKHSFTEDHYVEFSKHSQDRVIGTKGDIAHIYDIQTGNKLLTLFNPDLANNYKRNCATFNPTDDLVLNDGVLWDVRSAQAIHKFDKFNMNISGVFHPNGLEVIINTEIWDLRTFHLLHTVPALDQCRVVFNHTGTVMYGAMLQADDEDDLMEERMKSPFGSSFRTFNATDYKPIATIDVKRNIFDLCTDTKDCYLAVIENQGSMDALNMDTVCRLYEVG
row,Structure (SMILES),Kd [µM]
1,Fc1cccc(N2C3CC[C@H]2CC[C@H]3Nc2nccc(N3CCOCC3)n2)c1 (stereo in doubt) [I-60],100 to 200
2,Fc1cccc(N2C3CC[C@H]2CC[C@H]3Nc2cc(N3CCOCC3)ccn2)c1 (stereo in doubt) [I-80],> 200
3,Fc1cccc(N2[C@H]3CCC[C@@H]2[C@H](Nc2nccc(N4CCOCC4)n2)CC3)c1 (stereo in doubt) [I-322],> 200
4,Fc1cccc(N2C[C@H](Nc3cc(N4CCOCC4)ncn3)C3CCC[C@H]2C3)c1 (stereo in doubt) [I-384],> 200
5,Fc1cccc(N2CCC[C@@H](Nc3cc(N4CCOCC4)ncn3)C2)c1 [I-1],100 to 200
6,c1ccc(N2CCC[C@@H](Nc3cc(N4CCOCC4)ncn3)C2)cc1 [I-2],100 to 200
7,Fc1ccccc1N1CCC[C@@H](Nc2cc(N3CCOCC3)ncn2)C1 [I-3],> 200
8,Cc1ccccc1N1CCC[C@@H](Nc2cc(N3CCOCC3)ncn2)C1 [I-4],> 200
9,Cc1cccc(N2CCC[C@@H](Nc3cc(N4CCOCC4)ncn3)C2)c1 [I-5],> 200
10,c1cc(N2CCC[C@@H](Nc3cc(N4CCOCC4)ncn3)C2)ccn1 [I-6],> 200
11,Fc1ccc(N2CCC[C@@H](Nc3cc(N4CCOCC4)ncn3)C2)cc1 [I-7],100 to 200
12,Cc1ccc(N2CCC[C@@H](Nc3cc(N4CCOCC4)ncn3)C2)cc1 [I-8],100 to 200
13,COc1cccc(N2CCC[C@@H](Nc3cc(N4CCOCC4)ncn3)C2)c1 [I-9],100 to 200
14,COc1ccc(N2CCC[C@@H](Nc3cc(N4CCOCC4)ncn3)C2)cc1 [I-10],> 200
15,c1ccc(N2CCC[C@@H](Nc3cc(N4CCOCC4)ncn3)C2)nc1 [I-11],> 200
16,c1cncc(N2CCC[C@@H](Nc3cc(N4CCOCC4)ncn3)C2)c1 [I-12],> 200
17,Oc1cccc(N2CCC[C@@H](Nc3cc(N4CCOCC4)ncn3)C2)c1 [I-13],> 200
18,Oc1ccc(N2CCC[C@@H](Nc3cc(N4CCOCC4)ncn3)C2)cc1 [I-14],100 to 200
19,COc1ccccc1N1CCC[C@@H](Nc2cc(N3CCOCC3)ncn2)C1 [I-15],> 200
20,Oc1ccccc1N1CCC[C@@H](Nc2cc(N3CCOCC3)ncn2)C1 [I-16],> 200
21,Fc1cccc(N2CCC[C@@H](Nc3cccc(N4CCOCC4)n3)C2)c1 [I-17],100 to 200
22,Fc1cccc(N2CCC[C@@H](Nc3ccnc(N4CCOCC4)c3)C2)c1 [I-18],> 200
23,Fc1cccc(N2CCC[C@@H](Nc3cncc(N4CCOCC4)c3)C2)c1 [I-19],10 to 100

row,Structure (SMILES),Kd [µM]
1,Fc1cccc(N2CCC[C@@H](Nc3cc(N4CCOCC4)cnn3)C2)c1 [I-20],> 200
2,O=C(Nc1ccc(F)c(Cl)c1)C1CCN(c2ccnc(-c3ccccc3)n2)CC1 [I-21],> 200
3,Fc1cccc(N2CCCC(Nc3nccc(N4CCOCC4)n3)C2)c1 (stereo not drawn) [I-22],> 200
4,Fc1cccc(N2CCCC(Nc3nccc(N4CCNCC4)n3)C2)c1 (stereo not drawn) [I-23],> 200
5,CCN1CCN(c2ccnc(NC3CCCN(c4cccc(F)c4)C3)n2)CC1 (stereo not drawn) [I-24],> 200
6,CCCN1CCN(c2ccnc(NC3CCCN(c4cccc(F)c4)C3)n2)CC1 (stereo not drawn) [I-25],> 200
7,CCCCN1CCN(c2ccnc(NC3CCCN(c4cccc(F)c4)C3)n2)CC1 (stereo not drawn) [I-26],> 200
8,Fc1cccc(N2CCCC(Nc3nccc(N4CCCCC4)n3)C2)c1 (stereo not drawn) [I-27],100 to 200
9,COCCN1CCN(c2ccnc(NC3CCCN(c4cccc(F)c4)C3)n2)CC1 (stereo not drawn) [I-28],10 to 100
10,c1cnc2c(N3CCC[C@@H](Nc4nccc(N5CCOCC5)n4)C3)cccc2c1 [I-30],100 to 200
11,c1cc(N2CCC[C@@H](Nc3nccc(N4CCOCC4)n3)C2)c2cnccc2c1 [I-31],> 200
12,c1ccc2cc(N3CCC[C@@H](Nc4nccc(N5CCOCC5)n4)C3)ccc2c1 [I-32],> 200
13,c1cc2cc(N3CCC[C@@H](Nc4nccc(N5CCOCC5)n4)C3)ccc2cn1 [I-33],> 200
14,Fc1cccc(N2CCC[C@@H](N(Cc3ccccc3)c3nccc(N4CCOCC4)n3)C2)c1 [I-34],> 200
15,c1ccc2c(N3CCC[C@@H](Nc4nccc(N5CCOCC5)n4)C3)ccnc2c1 [I-35],10 to 100
16,c1ccc2c(N3CCC[C@@H](Nc4nccc(N5CCOCC5)n4)C3)nccc2c1 [I-36],10 to 100
17,c1ccc2nc(N3CCC[C@@H](Nc4nccc(N5CCOCC5)n4)C3)ccc2c1 [I-37],> 200
18,CN(c1nccc(N2CCOCC2)n1)[C@@H]1CCCN(c2cccc(F)c2)C1 [I-39],> 200
19,COCCN(c1nccc(N2CCOCC2)n1)[C@@H]1CCCN(c2cccc(F)c2)C1 [I-40],100 to 200
20,Fc1cccc(N2CCC[C@@H](N(CC3CC3)c3nccc(N4CCOCC4)n3)C2)c1 [I-41],100 to 200
21,CCN(c1nccc(N2CCOCC2)n1)[C@@H]1CCCN(c2cccc(F)c2)C1 [I-42],> 200
22,CCCN(c1nccc(N2CCOCC2)n1)[C@@H]1CCCN(c2cccc(F)c2)C1 [I-44],> 200
23,c1cnc2cc(N3CCC[C@@H](Nc4nccc(N5CCOCC5)n4)C3)ccc2c1 [I-45],10 to 100

row,Structure (SMILES),Kd [µM]
1,c1ccc2ncc(N3CCC[C@@H](Nc4nccc(N5CCOCC5)n4)C3)cc2c1 [I-46],> 200
2,c1ccc2cc(N3CCC[C@@H](Nc4nccc(N5CCOCC5)n4)C3)ncc2c1 [I-47],100 to 200
3,Fc1cccc(N2CCC[C@@H](n3ccc4c(N5CCOCC5)ccnc43)C2)c1 [I-49],100 to 200
4,Fc1cccc(N2CCC[C@@H](n3cnc4c(N5CCOCC5)ccnc43)C2)c1 [I-50],> 200
5,Fc1cccc(N2CCC[C@@H](n3cnc4c(N5CCOCC5)ncnc43)C2)c1 [I-51],> 200
6,c1ccc2c(N3CCC[C@@H](Nc4nccc(N5CCOCC5)n4)C3)cccc2c1 [I-52],> 200
7,c1cc(N2CCC[C@@H](Nc3nccc(N4CCOCC4)n3)C2)c2cccnc2c1 [I-53],100 to 200
8,c1ccc2c(N3CCC[C@@H](Nc4nccc(N5CCOCC5)n4)C3)cncc2c1 [I-54],10 to 100
9,c1cc(N2CCC[C@@H](Nc3nccc(N4CCOCC4)n3)C2)c2ccncc2c1 [I-55],100 to 200
10,c1cnc2ccc(N3CCC[C@@H](Nc4nccc(N5CCOCC5)n4)C3)cc2c1 [I-56],> 200
11,c1cc2ccc(N3CCC[C@@H](Nc4nccc(N5CCOCC5)n4)C3)cc2cn1 [I-57],10 to 100
12,Fc1cccc(N2CCC[C@@H](n3ccc(N4CCOCC4)c4ccnc3-4)C2)c1 [I-58],10 to 100
13,Fc1cccc(N2CCC[C@@H](n3ccc4c(N5CCOCC5)ncnc43)C2)c1 [I-59],100 to 200
14,COCCN1CCN(c2ccnc(N[C@@H]3CCCN(c4cccc(F)c4)C3)c2)CC1 [I-61],10 to 100
15,c1ccc2c(N3CCC[C@@H](Nc4cc(N5CCOCC5)ccn4)C3)nccc2c1 [I-62],> 200
16,c1cnc2ccnc(N3CCC[C@@H](Nc4cc(N5CCOCC5)ccn4)C3)c2c1 [I-63],100 to 200
17,c1cnc2c(N3CCC[C@@H](Nc4cc(N5CCOCC5)ccn4)C3)nccc2c1 [I-64],100 to 200
18,c1ccc2c(N3CCC[C@@H](Nc4cc(N5CCOCC5)ccn4)C3)nncc2c1 [I-65],100 to 200
19,c1cc2c(N3CCC[C@@H](Nc4cc(N5CCOCC5)ccn4)C3)nccc2cn1 [I-66],100 to 200
20,c1ccc2c(N3CCC[C@@H](Nc4cc(N5CCOCC5)ccn4)C3)ncnc2c1 [I-67],> 200
21,c1cc2ccnc(N3CCC[C@@H](Nc4cc(N5CCOCC5)ccn4)C3)c2cn1 [I-68],100 to 200
22,c1cnc(N2CCC[C@@H](Nc3cc(N4CCOCC4)ccn3)C2)nc1 [I-69],100 to 200
23,Cc1ccc(N2CCOCC2)cc1N[C@@H]1CCCN(c2cccc(F)c2)C1 [I-70],> 200

row,Structure (SMILES),Kd [µM]
1,N#Cc1ccc(N2CCOCC2)cc1N[C@@H]1CCCN(c2cccc(F)c2)C1 [I-71],10 to 100
2,Fc1cc2ccccc2c(N2CCC[C@@H](Nc3cc(N4CCOCC4)ccn3)C2)n1 [I-72],100 to 200
3,c1ccc2c(N3CCC[C@@H](Nc4cc(N5CCOCC5)ccn4)C3)noc2c1 [I-73],100 to 200
4,Fc1ccc(N2CCC[C@@H](Nc3cc(N4CCOCC4)ccn3)C2)cc1F [I-74],10 to 100
5,c1ccc(N2CCC[C@@H](Nc3cc(N4CCOCC4)ccn3)C2)cc1 [I-75],10 to 100
6,COCCN(c1cc(N2CCOCC2)ccn1)[C@@H]1CCCN(c2cccc(F)c2)C1 [I-76],10 to 100
7,CNC(=O)C[C@H](NC(=O)c1cn[nH]c1-c1ccccc1F)c1cccc(Cl)c1 [I-79],10 to 100
8,Fc1cccc(N2CCC[C@@H](Oc3cc(N4CCOCC4)ccn3)C2)c1 [I-81],> 200
9,CCNC(=O)C[C@H](NC(=O)c1cn[nH]c1-c1ccccc1F)c1cccc(Cl)c1 [I-83],10 to 100
10,O=C(C[C@H](NC(=O)c1cn[nH]c1-c1ccccc1F)c1cccc(Cl)c1)NCc1ccccc1 [I-84],10 to 100
11,O=C(Nc1ccccc1)NC1CCCN(C(=O)N2CCC=C(F)C2)C1 (stereo not drawn) [I-85],> 200
12,O=C(CC1CN(C(=O)N2CCC=C(F)C2)CCO1)Nc1ccccn1 (stereo not drawn) [I-86],> 200
13,Fc1cccc(N2CCC[C@@H](Cc3cc(N4CCOCC4)ccn3)C2)c1 [I-87],> 200
14,COCCn1ncc(C(=O)N[C@@H](CC(N)=O)c2cccc(Cl)c2)c1-c1ccccc1F [I-88],> 200
15,NC(=O)C[C@H](NC(=O)c1cc[nH]c1-c1ccccc1F)c1cccc(Cl)c1 [I-89],10 to 100
16,NC(=O)C[C@H](NC(=O)c1c[nH]cc1-c1ccccc1F)c1cccc(Cl)c1 [I-90],< 10
17,Fc1cccc(N2CCC[C@@H](Nc3cc(C4CCCCC4)ccn3)C2)c1 [I-91],> 200
18,Fc1cccc(N2CCC[C@@H](Nc3cc(C4CCOCC4)ccn3)C2)c1 [I-92],> 200
19,Fc1cccc(N2CCC[C@@H](Nc3cc(C4CCNCC4)ccn3)C2)c1 [I-93],> 200
20,Fc1cccc(N2CCC[C@@H](Nc3cc([C@@H]4CCCCO4)ccn3)C2)c1 [I-94],> 200
21,Fc1cccc(N2CCC[C@@H](Nc3cc([C@H]4CCCCO4)ccn3)C2)c1 [I-95],> 200
22,NC(=O)C[C@H](NC(=O)c1c[nH]cc1-c1ccccc1F)c1ccccc1Cl [I-96],10 to 100

# Same assay, conditions: DCAF1-3 SPR (KD), 25 °C
row,Structure (SMILES),Kd [µM]
1,"Fc1cccc(N2CCC[C@@H](Nc3cc(N4CCOCC4)ccn3)C2)c1 [I-29, (R)—N—(I-(3-fluorophenyl)piperidin-3-yl)-4-morpholinopyridin-2-amine]",10 to 100
2,CCCCN(c1nccc(N2CCOCC2)n1)[C@@H]1CCCN(c2cccc(F)c2)C1 [I-43],> 200
